Tested on: patients with prior myocardial infarction (CARE study)
Assay: CARE: association of SNPs with pravastatin treatment in cardiovascular events prevention (logistic regression, odds ratio pravastatin vs placebo by genotype; Table 8)
Assay type: in vivo, human
Details: for Prava vs. Placebo Odds Ratio, 0 Rare Alleles / Prava vs. Placebo Odds Ratio, 1 Rare Alleles / Prava vs. Placebo Odds Ratio, 2 Rare Alleles: SELP hCV11975296; for Prava vs. Placebo Odds Ratio, 0 Rare Alleles / Prava vs. Placebo Odds Ratio, 1 Rare Alleles / Prava vs. Placebo Odds Ratio, 2 Rare Alleles / Odds ratio pravastatin vs placebo: All Patients; for Any Report of Stroke During CARE, n/total (%) / Fatal/Non-fatal Cerebrovascular Disease, n/total (%): SERPINA1 hCV1260328, All Patients; for Coronary Artery Bypass Graft, n/total (%): SERPINA1 hCV25640505, All Patients; for Fatal/Nonfatal Atherosclerotic CV Disease, n/total (%): SERPINB6 hCV16190893, All Patients; for Fatal CHD/Definite Non-fatal MI, n/total (%): TAP1 hCV549926, All Patients
Excerpt: In order to identify genetic markers associated with acute coronary events (e.g. MI, stroke, unstable angina, congestive heart failure, etc.) or response to statin treatment for the prevention of coronary events, samples from the Cholesterol and Recurrent Events (CARE) study (a randomized multicentral double-blinded trial on secondary prevention of acute coronary events with pravastatin) (Sacks et al., 1991, Am. J. Cardiol. 68: 1436-1446) were genotyped. A well-documented myocardial infarction (MI) was one of the enrollment criteria for entry into the CARE study. Patients were enrolled in the CARE trial from 80 participating study centers. […] Patients were randomized to receive either 40 mg of pravastatin once daily or a matching placebo. The primary endpoint of the trial was death from coronary heart disease and the median duration of follow-up was 5.0 years (range, 4.0 to 6.2 years). […] Secondary endpoints of other related cardiovascular or metabolic disease events, and changes in clinical variables were also recorded in pravastatin-treated and placebo groups. All individuals included in the study had signed a written informed consent form and the study protocol was approved by the respective Institutional Review Boards (IRBs).
For genotyping SNPs in CARE patient samples, DNA was extracted from blood samples using conventional DNA extraction methods such as the QIA-amp kit from Qiagen. Genotypes were obtained on an ABI PRISM® 7900HT Sequence Detection PCR system (Applied Biosystems, Foster City, Calif.) by kinetic allele-specific PCR, similar to the method described by Germer et al. (Germer S., Holland M. J., Higuchi R. 2000, Genome Res. 10: 258-266).
Statistical analysis for association of SNPs with pravastatin treatment in cardiovascular events prevention (Table 8) was carried out using an overall logistic regression model that included an intercept, a parameter for the effect of a genotype containing two rare alleles versus a genotype containing no rare alleles, a parameter for the effect of a genotype containing one rare allele versus a genotype containing no rare alleles, a parameter for the effect of use of pravastatin versus the use of placebo, and parameters for the interaction effects between SNP genotypes and pravastatin use. The test of the overall model is a chi-square test with two degrees of freedom for analyses containing all three genotypes, and one degree of freedom for analyses containing two genotypes.
Effect sizes were estimated through odds ratios (pravastatin group versus placebo) for carriers of each genotype (groups of 0, 1, and 2 minor allele carriers). The effect was considered to be significant if p-value for testing whether any of the interactions between SNP genotypes and pravastatin use were <0.05. […] Odds ratios less than one indicate that the specific SNP allele has a protective effect and odds ratios greater than one indicate that the specific SNP allele has an adverse effect.

[1] = SELP hCV11975296, All Patients, 2 Rare Alleles, Prava arm
[2] = Coronary Artery Bypass or Revascularization
[3] = Hosp. for Cardiovascular Disease
[4] = SN hCV25623265, All Patients, 0 Rare Alleles, Prava arm
[5] = SN hCV25623265, All Patients, 1 Rare Allele, Prava arm
[6] = SN hCV25623265, All Patients, 2 Rare Alleles, Prava arm
[7] = TGFB1 hCV8708473, All Patients, 0 Rare Alleles, Prava arm

## CC[C@H](C)C(=O)O[C@H]1C[C@H](O)C=C2C=C[C@H](C)[C@H](CC[C@@H](O)C[C@@H](O)CC(=O)O)[C@H]21 [pravastatin]
[1]
  Coronary Artery Bypass or Revascularization, n/total (%): (20.3%)
  Hosp. for Cardiovascular Disease, n/total (%): (49.2%)
  Hosp. for Unstable Angina, n/total (%): (27.1%)
[2]
  Prava vs. Placebo Odds Ratio, 0 Rare Alleles: 0.68
  Prava vs. Placebo Odds Ratio, 1 Rare Alleles: 0.63
  Prava vs. Placebo Odds Ratio, 2 Rare Alleles: 5.74
[3]
  Prava vs. Placebo Odds Ratio, 0 Rare Alleles: 0.81
  Prava vs. Placebo Odds Ratio, 1 Rare Alleles: 0.62
  Prava vs. Placebo Odds Ratio, 2 Rare Alleles: 1.71
Hosp. for Unstable Angina
  Prava vs. Placebo Odds Ratio, 0 Rare Alleles: 0.82
  Prava vs. Placebo Odds Ratio, 1 Rare Alleles: 0.69
  Prava vs. Placebo Odds Ratio, 2 Rare Alleles: 5.45
0 Rare Alleles, Prava arm
  Any Report of Stroke During CARE, n/total (%): (2.9%)
  Fatal/Non-fatal Cerebrovascular Disease, n/total (%): (5.9%)
  Coronary Artery Bypass Graft, n/total (%): (6.1%)
  Fatal/Nonfatal Atherosclerotic CV Disease, n/total (%): (34.9%)
  Fatal CHD/Definite Non-fatal MI, n/total (%): (10.0%)
1 Rare Allele, Prava arm
  Any Report of Stroke During CARE, n/total (%): (1.2%)
  Fatal/Non-fatal Cerebrovascular Disease, n/total (%): (2.8%)
  Coronary Artery Bypass Graft, n/total (%): (9.0%)
  Fatal/Nonfatal Atherosclerotic CV Disease, n/total (%): (32.4%)
  Fatal CHD/Definite Non-fatal MI, n/total (%): (8.2%)
2 Rare Alleles, Prava arm
  Any Report of Stroke During CARE, n/total (%): (1.4%)
  Fatal/Non-fatal Cerebrovascular Disease, n/total (%): (2.7%)
  Coronary Artery Bypass Graft, n/total (%): (7.4%)
  Fatal/Nonfatal Atherosclerotic CV Disease, n/total (%): (29.7%)
  Fatal CHD/Definite Non-fatal MI, n/total (%): (4.1%)
SERPINA1 hCV1260328, Any Report of Stroke During CARE, 0 rare alleles
  Odds ratio pravastatin vs placebo: 0.87
SERPINA1 hCV1260328, Any Report of Stroke During CARE, 1 rare allele
  Odds ratio pravastatin vs placebo: 0.23
SERPINA1 hCV1260328, Any Report of Stroke During CARE, 2 rare alleles
  Odds ratio pravastatin vs placebo: 0.21
SERPINA1 hCV1260328, Fatal/Non-fatal Cerebrovascular Disease, 0 rare alleles
  Odds ratio pravastatin vs placebo: 1.03
SERPINA1 hCV1260328, Fatal/Non-fatal Cerebrovascular Disease, 1 rare allele
  Odds ratio pravastatin vs placebo: 0.36
SERPINA1 hCV1260328, Fatal/Non-fatal Cerebrovascular Disease, 2 rare alleles
  Odds ratio pravastatin vs placebo: 0.17
[4]
  Coronary Artery Bypass or Revascularization, n/total (%): (13.0%)
  Definite Nonfatal MI, n/total (%): (8.2%)
  Fatal CHD/Definite Nonfatal MI, n/total (%): (9.7%)
  Percutaneous Transluminal Coronary Angioplas, n/total (%): (7.5%)
  Total Coronary Heart Disease Events, n/total (%): (27.2%)
[5]
  Coronary Artery Bypass or Revascularization, n/total (%): (14.9%)
  Definite Nonfatal MI, n/total (%): (7.6%)
  Fatal CHD/Definite Nonfatal MI, n/total (%): (10.8%)
  Percutaneous Transluminal Coronary Angioplas, n/total (%): (9.5%)
  Total Coronary Heart Disease Events, n/total (%): (30.5%)
[6]
  Coronary Artery Bypass or Revascularization, n/total (%): (15.0%)
  Definite Nonfatal MI, n/total (%): (2.8%)
  Fatal CHD/Definite Nonfatal MI, n/total (%): (4.6%)
  Percutaneous Transluminal Coronary Angioplas, n/total (%): (9.8%)
  Total Coronary Heart Disease Events, n/total (%): (28.2%)
TAP1 hCV549926, Fatal CHD/Definite Non-fatal MI, 0 rare alleles
  Odds ratio pravastatin vs placebo: 0.85
TAP1 hCV549926, Fatal CHD/Definite Non-fatal MI, 1 rare allele
  Odds ratio pravastatin vs placebo: 0.54
TAP1 hCV549926, Fatal CHD/Definite Non-fatal MI, 2 rare alleles
  Odds ratio pravastatin vs placebo: 0.16
[7]
  Any Report of Stroke Prior to or During CARE, n/total (%): (7.5%)
  Cardiovascular Mortality, n/total (%): (5.5%)
  Fatal Atherosclerotic Cardiovascular Disease, n/total (%): (5.4%)
  Fatal Coronary Heart Disease, n/total (%): (5.1%)
  Fatal/Non-fatal Atherosclerotic CV Disease, n/total (%): (37.2%)
  Total Coronary Heart Disease Events, n/total (%): (32.1%)
  Total Mortality, n/total (%): (7.2%)

— patent publication US9932637B2, “Genetic polymorphisms associated with cardiovascular disorders and drug response, methods of detection and uses thereof” (CELERA CORPORATION, priority 2003, dated 2018)
